The test deals with T1, recombinant human DPP-1 (Cathepsin C) (Homo sapiens, UniProt P53634).
T1 construct: made in house
The test can be described thus: DPP-1 Inhibition Assay (In Vitro), fluorogenic substrate GR-AMC. The class given is biochemical. Particulars: 0.15 nM DPP-1, 10 uM GR-AMC, pH 7.0, room temperature; average value where tested multiple times. Here is the method:
Test compounds were assessed for DPP-1 (Cathepsin C) inhibitory activity using a fluorogenic substrate, GR-AMC (Glycine-Arginine-amino-4-methylcoumarin, Bachem, I-1215). The amount of amino-methylcoumarin released is proportional to the DPP-1 activity, and the reaction is monitored kinetically with a Molecular Devices plate reader using black 96-well plates.
All compounds were tested under room temperature conditions. The assay buffer consisted of 50 mM HEPES, pH 7.0, 100 mM NaCl, 2 mM glutathione (GSH), and 0.002% TWEEN 20. GSH and TWEEN 20 were added to the buffer fresh daily. Just prior to use, an in-house preparation of recombinant human DPP-1 (240 μM stock, MW 49.6 kD) was diluted 600-fold in assay buffer containing fresh 2 mM dithiothreitol (DTT) to activate the enzyme, then diluted into assay buffer (without DTT) 133-fold for a DPP-1 working solution of 3 nM. Test compounds were diluted in DMSO for 20× their final assay concentrations.
Additions to a 96-well black Costar 3915 plates were as follows: 90 μL of 11 μM GR-AMC, 5 μL test compound (followed by mixing), and 5 μL 3 nM DPP-1 to start the reaction. Fluorescent reactions were monitored kinetically at 360 nm excitation, 440 nm emission on a Molecular Devices Spectramax XPS reader. The Softmax Pro software of the reader determined the initial velocity of the selected data (the first 3-5 minutes of the reaction), and the best linear regression fit of the initial kinetic data. Final assay conditions were 0.15 nM DPP-1, 10 uM GR-AMC, 50 mM HEPES, pH 7.0, 100 mM NaCl, 2 mM GSH, 0.002% TWEEN 20, 1 uM DTT, 5.0% DMSO. Initial velocity rates were plotted vs. test compound concentration by use of a four-parameter logistics equation (nonlinear regression, sigmoidal dose-response (variable slope), with fixed Hill (1.0) using GraphPad Prism® software for determination of DPP-1 IC50. Within-run assay coefficient of variation (CV) was generally <10%; between-run CV <20%.
Representative compounds of the present invention were tested according to the procedure as described above, with results as listed in Table 5, below.

By IC50 is commonly meant the concentration at which inhibition is half-maximal.

T1 sequence (P53634 25-463): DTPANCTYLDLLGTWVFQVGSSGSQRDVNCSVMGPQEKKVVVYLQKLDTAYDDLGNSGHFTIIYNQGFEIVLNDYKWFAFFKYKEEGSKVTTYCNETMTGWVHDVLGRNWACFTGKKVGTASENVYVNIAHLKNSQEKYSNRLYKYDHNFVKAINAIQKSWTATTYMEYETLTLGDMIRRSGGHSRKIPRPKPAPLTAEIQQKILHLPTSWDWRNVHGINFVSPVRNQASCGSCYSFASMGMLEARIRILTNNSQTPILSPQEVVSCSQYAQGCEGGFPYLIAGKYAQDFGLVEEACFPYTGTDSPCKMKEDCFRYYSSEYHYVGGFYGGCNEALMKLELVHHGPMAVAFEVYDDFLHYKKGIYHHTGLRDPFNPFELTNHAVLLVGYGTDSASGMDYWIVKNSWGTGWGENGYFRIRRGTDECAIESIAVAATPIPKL

`N[C@@H](Cc1cccs1)C(=O)N1CCC(Cc2ccncc2)(C(=O)NC2CCCCC2)CC1` [Compound 71]: the IC50 was 37 nM.

For `N[C@@H](Cc1cccs1)C(=O)N1CCC(Cc2ccc(C(=O)N3CCCC3)cc2)(C(=O)NC2CCCCC2)CC1` [Compound 58], the IC50 was 73 nM.

`NC(=O)c1ccc(CC2(C(=O)NC3CCCCC3)CCN(C(=O)[C@@H](N)Cc3cccs3)CC2)cc1` [Compound 61]: the IC50 came to 47 nM.

In the case of `N[C@@H](Cc1cccs1)C(=O)N1CCC(Cc2ccc(C(F)(F)F)cc2)(C(=O)OCC2CCCCC2)CC1` [Compound 19], the IC50 amounted to 400 nM.

For `N[C@@H](Cc1cccs1)C(=O)N1CCC(Cc2ccc(-c3ccc4c(c3)OCO4)cc2)(C(=O)NC2CCCCC2)CC1` [Compound 40], the IC50 worked out at 35 nM.

As for `N[C@@H](Cc1cccs1)C(=O)N1CCC(Cc2cccc(-c3cncnc3)c2)(C(=O)NC2CCCCC2)CC1` [Compound 97], the 50% inhibitory concentration (IC50) was found to be 39 nM.

In the case of `N[C@@H](Cc1cccs1)C(=O)N1CCC(C(=O)NC2=NCCS2)(c2ccccc2)CC1` [Compound 114], the half-inhibitory concentration (IC50) came to 220 nM.

`N[C@@H](Cc1cccs1)C(=O)N1CCC(C(=O)N[C@H]2CC[C@H](O)CC2)(c2ccccc2)CC1` [Compound 85]: the IC50 was found to be 110 nM.

In the case of `N[C@@H](Cc1cccs1)C(=O)N1CCC(Cc2ccncc2)(C(=O)NCC2CCOCC2)CC1` [Compound 121], the IC50 was determined as 130 nM.

Take `N[C@@H](Cc1cccs1)C(=O)N1CCC(Cc2ccc(-c3nnn[nH]3)cc2)(C(=O)NCC2CCCCC2)CC1` [Compound 127]: the IC50 is 83 nM.

For `N[C@@H](Cc1cccs1)C(=O)N1CCC(Cc2ccc(-c3ccc(C(F)(F)F)cc3)cc2)(C(=O)NC2CCCCC2)CC1` [Compound 53], the IC50 was 140 nM.

As for `COC(=O)C1(Cc2ccc(-c3ccccc3)cc2)CCN(C(=O)[C@@H](N)Cc2cccs2)CC1` [Compound 1], the 50% inhibitory concentration (IC50) is 1800 nM.

Turning to `N[C@@H](Cc1cccs1)C(=O)N1CCC(Cc2cccc(-c3ccc(O)nc3)c2)(C(=O)NC2CCCCC2)CC1` [Compound 98], the IC50 stood at 45 nM.

Consider `N[C@@H](Cc1c[nH]cn1)C(=O)N1CCC(C(=O)NC2CCCCC2)(c2ccccc2)CC1` [Compound 75], for which the IC50 amounted to 2800 nM.

With `CS(=O)(=O)Nc1ccc(CC2(C(=O)NC3CCCCC3)CCN(C(=O)[C@@H](N)Cc3cccs3)CC2)cc1` [Compound 88], the IC50 is 31 nM.

As for `N[C@@H](Cc1cc(Br)cs1)C(=O)N1CCC(Cc2ccc(I)cc2)(C(=O)NC2CCCCC2)CC1` [Compound 92], the IC50 was found to be 5600 nM.

Regarding `CC[C@H](N)C(=O)N1CCC(Cc2ccccc2)(C(=O)OCC2CCCCC2)CC1` [Compound 10], the IC50 was approximately 5000 nM.

As to `CC(=O)Nc1cccc(-c2ccc(CC3(C(=O)NC4CCCCC4)CCN(C(=O)[C@@H](N)Cc4cccs4)CC3)cc2)c1` [Compound 54], the IC50 stood at 31 nM.

As for `CC[C@H](N)C(=O)N1CCC(Cc2cccc(OC)c2)(C(=O)NC2CCCCC2)CC1` [Compound 83], the IC50 was 9500 nM.

As to `N[C@@H](Cc1cccs1)C(=O)N1CCC(Cc2cccnc2)(C(=O)NC2CCCCC2)CC1` [Compound 66], the IC50 amounted to 54 nM.

In the case of `N[C@@H](Cc1ccco1)C(=O)N1CCC(Cc2ccc(-c3ccccc3)cc2)(C(=O)NC2CCCCC2)CC1` [Compound 37], the IC50 was determined as 230 nM.

Turning to `Nc1ccc(CC2(C(=O)NC3CCCCC3)CCN(C(=O)[C@@H](N)Cc3cccs3)CC2)cc1` [Compound 95], the IC50 worked out at 63 nM.

For `N#Cc1ccc(-c2ccc(CC3(C(=O)NC4CCCCC4)CCN(C(=O)[C@@H](N)Cc4cccs4)CC3)cc2)cc1` [Compound 99], the IC50 was 46 nM.

Consider `N[C@@H](Cc1cccs1)C(=O)N1CCC(Cc2ccc(-c3cccnc3Cl)cc2)(C(=O)NC2CCCCC2)CC1` [Compound 48], for which the IC50 was determined as 39 nM.

`CC(=O)Nc1ccccc1-c1ccc(CC2(C(=O)NC3CCCCC3)CCN(C(=O)[C@@H](N)Cc3cccs3)CC2)cc1` [Compound 45]: the IC50 was found to be 52 nM.

With `N[C@@H](Cc1cccs1)C(=O)N1CCC(Cc2ccc(F)cc2F)(C(=O)OCC2CCCCC2)CC1` [Compound 27], the IC50 came out at 220 nM.

For the molecule `N[C@@H](Cc1cccs1)C(=O)N1CCC(Cc2ccc(C(=O)N3CCOCC3)cc2)(C(=O)NC2CCCCC2)CC1` [Compound 57], the IC50 came out at 36.3 nM.

As to `N[C@@H](Cc1c[nH]cn1)C(=O)N1CCC(Cc2ccc(-c3ccccc3)cc2)(C(=O)NCC2CCCCC2)CC1` [Compound 9], the IC50 was 930 nM.

On to `N[C@@H](Cc1cccs1)C(=O)N1CCC(C(=O)NCC2CCOCC2)(c2ccccc2)CC1` [Compound 104], for which the half-inhibitory concentration (IC50) was 76 nM.

Take `N[C@@H](Cc1c[nH]cn1)C(=O)N1CCC(Cc2ccc(F)cc2F)(C(=O)OCC2CCCCC2)CC1` [Compound 28]: the IC50 is 1700 nM.

Take `CCC[C@H](N)C(=O)N1CCC(Cc2cccnc2)(C(=O)NCC2CCCCC2)CC1` [Compound 136]: the IC50 stood at 6500 nM.

`N[C@@H](Cc1cccs1)C(=O)N1CCC(Cc2ccc(-c3ccncc3)cc2)(C(=O)NC2CCCCC2)CC1` [Compound 42]: the IC50 turned out to be 29 nM.

Take `N[C@@H](Cc1cccs1)C(=O)N1CCC(Cc2ccc(-c3cncnc3)cc2)(C(=O)NC2CCCCC2)CC1` [Compound 43]: the IC50 is 29 nM.

Regarding `N[C@@H](Cc1cccs1)C(=O)N1CCC(Cc2ccc(-c3cccc(C(=O)O)c3)cc2)(C(=O)NC2CCCCC2)CC1` [Compound 55], the half-inhibitory concentration (IC50) was 100 nM.

As to `N[C@@H](Cc1cccs1)C(=O)N1CCC(Cc2ccc(-c3ccccc3)cc2)(C(=O)NC2CCCCC2)CC1` [Compound 8], the IC50 amounted to 35 nM.

Take `N[C@@H](Cc1cccs1)C(=O)N1CCC(Cc2ccc(C(=O)O)cc2)(C(=O)NC2CCCCC2)CC1` [Compound 62]: the IC50 is 360 nM.

Regarding `N[C@@H](Cc1cccs1)C(=O)N1CCC(Cc2cccc(I)c2)(C(=O)NC2CCCCC2)CC1` [Compound 96], the IC50 was 84 nM.

Consider `CC[C@H](N)C(=O)N1CCC(Cc2ccc(I)cc2)(C(=O)NC2CCCCC2)CC1` [Compound 77], for which the IC50 turned out to be 2300 nM.

`N[C@@H](Cc1cccs1)C(=O)N1CCC(Cc2ccc(-c3ccccc3)cc2)(C(=O)O)CC1` [Compound 2]: the IC50 was more than 10000 nM.

`N[C@@H](Cc1cccs1)C(=O)N1CCC(Cc2ccc(I)cc2)(C(=O)NC2CCCCC2)CC1` [Compound 41]: the IC50 was 37 nM.

For the molecule `N[C@@H](Cc1c[nH]cn1)C(=O)N1CCC(Cc2cccnc2)(C(=O)OCC2CCCCC2)CC1` [Compound 25], the half-maximal inhibitory concentration (IC50) was 1800 nM.

Consider `CC[C@H](N)C(=O)N1CCC(Cc2cccnc2)(C(=O)OCC2CCCCC2)CC1` [Compound 23], for which the IC50 worked out at 8200 nM.

For `N[C@@H](Cc1cccs1)C(=O)N1CCC(Cc2cccc(-c3cccc(C(=O)O)c3)c2)(C(=O)NC2CCCCC2)CC1` [Compound 101], the IC50 is 140 nM.

For the molecule `N#Cc1ccc(CC2(C(=O)OCC3CCCCC3)CCN(C(=O)[C@@H](N)Cc3c[nH]cn3)CC2)cc1` [Compound 16], the IC50 came to 1200 nM.

On to `N[C@@H](Cc1cccs1)C(=O)N1CCC(Cc2ccc(-c3ccc(C(=O)O)cc3)cc2)(C(=O)NC2CCCCC2)CC1` [Compound 52], for which the IC50 was 100 nM.

As for `CC[C@H](N)C(=O)N1CCC(Cc2ccncc2)(C(=O)OCC2CCCCC2)CC1` [Compound 21], the IC50 is 7400 nM.

Turning to `N#Cc1ccccc1CC1(C(=O)NC2CCCCC2)CCN(C(=O)[C@@H](N)Cc2cccs2)CC1` [Compound 82], the IC50 is 110 nM.

For `N[C@@H](Cc1nccs1)C(=O)N1CCC(Cc2ccc(-c3ccccc3)cc2)(C(=O)NC2CCCCC2)CC1` [Compound 33], the concentration for half-maximal inhibition (IC50) was 230 nM.

Consider `N[C@@H](Cc1cccs1)C(=O)N1CCC(Cc2cccc(-c3ccc(C(=O)O)cc3)c2)(C(=O)NC2CCCCC2)CC1` [Compound 102], for which the IC50 is 190 nM.

For `N[C@@H](Cc1cccs1)C(=O)N1CCC(C(=O)N[C@H]2CC[C@H](C(=O)O)CC2)(c2ccccc2)CC1` [Compound 115], the IC50 was found to be 200 nM.

As to `N[C@@H](Cc1cccs1)C(=O)N1CCC(Cc2ccc(Cl)cc2)(C(=O)OCC2CCCCC2)CC1` [Compound 14], the IC50 was 350 nM.

Turning to `CN(CC1CCCCC1)C(=O)C1(c2ccccc2)CCN(C(=O)[C@@H](N)Cc2cccs2)CC1` [Compound 134], the IC50 came to 16 nM.

For the molecule `CC[C@H](N)C(=O)N1CCC(Cc2ccc(-c3ccccc3)cc2)(C(=O)NCC2CCCCC2)CC1` [Compound 5], the IC50 is 3000 nM.

Take `N[C@@H](Cc1cccs1)C(=O)N1CCC(Cc2ccccc2)(C(=O)OCC2CCCCC2)CC1` [Compound 11]: the IC50 worked out at 220 nM.

On to `CC[C@H](N)C(=O)N1CCC(Cc2ccc(Cl)cc2)(C(=O)OCC2CCCCC2)CC1` [Compound 13], for which the IC50 was determined as 4300 nM.
